# Reference: patent EP4227307A1 (Genzyme Corporation, priority 2022, dated 2023)
# Counter-ions that a name gives are not always drawn.
# Biological target: T1, human recombinant 6His-Nterm SHP2 full-length (Thr2-Arg593) (Homo sapiens, UniProt Q06124)
# T1 construct: 6His-Nterm SHP2 full-length (Thr2-Arg593, R&D system); 6His (N); purchased R&D system
# T1 sequence (Q06124 2-593): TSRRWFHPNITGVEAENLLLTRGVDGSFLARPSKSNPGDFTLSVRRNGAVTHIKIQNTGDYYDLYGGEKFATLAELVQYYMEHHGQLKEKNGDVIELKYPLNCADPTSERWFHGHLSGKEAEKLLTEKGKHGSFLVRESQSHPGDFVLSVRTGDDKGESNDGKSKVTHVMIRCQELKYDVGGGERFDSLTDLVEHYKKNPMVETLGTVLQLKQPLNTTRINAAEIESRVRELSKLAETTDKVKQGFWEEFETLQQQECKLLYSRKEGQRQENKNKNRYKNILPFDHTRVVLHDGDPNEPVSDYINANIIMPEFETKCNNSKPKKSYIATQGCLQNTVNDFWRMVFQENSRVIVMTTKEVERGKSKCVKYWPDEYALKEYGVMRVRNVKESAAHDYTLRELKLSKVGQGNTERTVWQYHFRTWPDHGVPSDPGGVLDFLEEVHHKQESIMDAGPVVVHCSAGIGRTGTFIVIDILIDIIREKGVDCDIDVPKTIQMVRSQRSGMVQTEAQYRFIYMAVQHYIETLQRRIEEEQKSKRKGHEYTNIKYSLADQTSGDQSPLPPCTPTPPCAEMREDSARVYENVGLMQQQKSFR
# Assay: SHP2 Phosphatase Assay (DiFMUP fluorescence)
# Assay type: biochemical
# Conditions: SHP2 0.2 nM pre-incubated with 100 nM bi-phosphorylated activating peptide; compound 1000-0.05 nM, 30 min pre-incubation; DiFMUP 20 µM, 45 min, room temperature; 10-concentration dose-response
# Method: Inhibition of SHP2 phosphatase activity was evaluated using human recombinant 6His-Nterm SHP2 full-length (Thr2-Arg593, R&D system), NsCs bi-phosphorylated activating peptide (NH2-LN(pY)AQLWHA(PEG8)LTI(pY)ATIRRF-Amide.acetate, Thermofischer Scientific) and DiFMUP as surrogate phosphatase substrate (Molecular Probes). All reactions were performed at room temperature in 384-well black polystyrene non-binding plate (Corning) with the assay buffer (50 mM HEPES-NaOH pH 7.2, 100 mM NaCl, 0.5 mM EDTA, 0.001% Brij35 including 0.02% BSA and 1 mM DTT added extemporaneously). SHP2 was pre-incubated at least 10 min with the activating peptide (0.2 nM and 100 nM, respectively). 10 µL of this mixture was added to the assay plate, that already contained 15 nL of the compound (1000-0.05 nM). After 30 min pre-incubation, the enzymatic reaction was initiated by the addition of 5 µL DiFMUP in assay buffer without BSA (20 µM). The reaction was stopped by the addition of 15 µL sodium pervanadate solution (100 µM) after 45 min incubation. The fluorescence signal was measured at excitation and emission wavelengths of 350 nm and 450 nm, respectively, using a Pherastar instrument (BMG-LabTech). Percentage of inhibition […] were calculated from the fluorescence signal at 450 nm of the positive and negative control using the following formula: I% = ((signal Max−signal Sample)/(signal Max−signal Min control)) × 100 [formula]
# Positive control (Max): corresponds to the maximum fluorescence signal obtained in the presence of 15 nL DMSO replacing the inhibitor in the pre-incubation step.
# Negative control (Min): corresponds to the minimum signal obtained in the presence of 1 µM of RMC-4550, the structure of which is shown below: [drawing 464]
# The IC50 were then calculated from a dose-response curve of 10 concentrations of tested compound using the 4-parameter logistic model: I% = A + (C)/(1 + exp(−B×log(X)−M)) [formula]
# The parameters A and (A+C) are the lower and upper limits, B is the slope of the curve at the inflexion point, M parameter is the logarithm of the abscissa at the inflexion point, and X is the concentration of compound.
row,SMILES,IC50
1,"Cc1nccc(-c2c(C)nc(N3CCC4(CC3)Cc3nc(O)sc3[C@H]4N)c3ccnn23)c1Cl [Compound 218, (6S)-6-amino-1'-[7-(3-chloro-2-methyl-4-pyridyl)-6-methyl-pyrazolo[1,5-a]pyrazin-4-yl]spiro[4,6-dihydrocyclopenta[d]thiazole-5,4'-piperidine]-2-ol hydrochloride]",179 nM
2,"CCc1nccc(-c2c(C)nc(N3CCC4(CC3)Cc3ncccc3[C@H]4N)c3ccnn23)c1Cl [Compound 42, (5S)-1'-[7-(3chloro-2-ethyl-4-pyridyl)-6-methyl-pyrazolo[1,5-a]pyrazin-4-yl]spiro[5,7-dihydrocyclopenta[b]pyridine-6,4'-piperidine]-5-amine]",3 nM
3,"Cc1nc(N2CCC3(CC2)Cc2ncccc2[C@H]3N)c2ccnn2c1-c1cc(C(F)(F)F)ccc1F [Compound 187, (5S)-1'-[7-[2-fluoro-5-(trifluoromethyl)phenyl] -6-methyl-pyrazolo[1,5-a]pyrazin-4-yl]spiro[5,7-dihydrocyclopenta[b]pyridine-6,4'-piperidine]-5-amine]",250 nM
4,"Cc1nccc(-c2c(C)nc(N3CCC4(CC3)Cc3ccccc3[C@H]4N)c3ccnn23)c1F [Compound 151, (1S)-1'-[7-(3-fluoro-2-methyl-4-pyridyl)-6-methyl-pyrazolo [1 ,5-a]pyrazin-4-yl]spiro[indane-2,4'-piperidine]-1-amine]",9 nM
5,"Cc1c(-c2cnc(N3CCC4(CC3)Cc3ncccc3[C@H]4N)c3ccnn23)cnn1C [Compound 88, (5S)-1'-[7-(1,5-dimethylpyrazol-4-yl)pyrazolo [1,5-a]pyrazin-4-yl]spiro[5,7-dihydrocyclopenta[b]pyridine-6,4'-piperidine] -5-amine hydrochloride]",346 nM
6,"Cc1nccc(-c2c(C)nc(N3CCC4(CC3)Cc3ccncc3[C@H]4N)c3ccnn23)c1Cl [Compound 139, (7S)-1'-[7-(3-chloro-2-methyl-4-pyridyl)-6-methyl-pyrazolo[1,5-a]pyrazin-4-yl]spiro[5,7-dihydrocyclopenta[c]pyridine-6,4'-piperidine]-7-amine]",4 nM
7,"Cc1nc(N2CCC3(CC2)Cc2ncccc2[C@H]3N)c2ccnn2c1-c1cc(F)ccc1F [Compound 195, (5S)-1'-[7-(2,5-difluorophenyl)-6-methyl-pyrazolo[1,5-a]pyrazin-4-yl]spiro[5,7-dihydrocyclopenta[b]pyridine-6,4'-piperidine]-5-amine]",4 nM
8,"Cc1nc(N2CCC3(CC2)Oc2ncccc2[C@H]3N)c2ccnn2c1-c1cccc(Cl)c1Cl [Compound 17, (3R)-1'-[7-(2,3-dichlorophenyl)-6-methyl-pyrazolo[1,5-a]pyrazin-4-yl]spiro[3H-furo[2,3-b]pyridine-2,4'-piperidine]-3-amine]",39 nM
9,"COc1cccc2c1CC1(CCN(c3nc(C)c(-c4ccnc(C)c4Cl)n4nccc34)CC1)[C@@H]2N [Compound 110, (1S)-1'-[7-(3-chloro-2-methyl-4-pyridyl)-6-methyl-pyrazolo[1,5-a]pyrazin-4-yl]-4-methoxy-spiro[indane-2,4'-piperidine]-1-amine]",11 nM
10,"Cc1nc(N2CCC3(CC2)Cc2ncccc2[C@H]3N)c2ccnn2c1-c1cscn1 [Compound 160, (5S)-1'-(6-methyl-7-thiazol-4-yl-pyrazolo[1,5-a]pyrazin-4-yl)spiro[5,7-dihydrocyclopenta[b]pyridine-6,4'-piperidine]-5-amine hydrochloride]",63 nM
11,"Cc1nc(N2CCC3(CC2)Cc2ncccc2[C@H]3N)c2ccnn2c1-c1cccn(C)c1=O [Compound 227, 3-[4-[(5S)-5-aminospiro[5,7-dihydrocyclopenta[b]pyridine-6,4'-piperidine]-1'-yl]-6-methyl-pyrazolo[1,5-a]pyrazin-7-yl]-1-methyl-pyridin-2-one]",> 1000 nM
12,"CNc1cc(-c2c(C)nc(N3CCC4(CC3)Cc3ncccc3[C@H]4N)c3ccnn23)ccn1 [Compound 168, (5S)-1'-[6-methyl-7-[2-(methylamino)-4-pyridyl]pyrazolo[1,5-a]pyrazin-4-yl]spiro[5,7-dihydrocyclopenta[b]pyridine-6,4'-piperidine]-5-amine]",30 nM
13,"Cc1nc(N2CCC3(CC2)Cc2ncsc2[C@H]3N)c2ccnn2c1-c1ccccc1F [Compound 75, (6S)-1'-[7-(2-fluorophenyl)-6-methyl-pyrazolo[1,5-a]pyrazin-4-yl]spiro[4,6-dihydrocyclopenta[d]thiazole-5,4'-piperidine]-6-amine hydrochloride]",7 nM
14,"Cc1cc(-c2c(C)nc(N3CCC4(CC3)Cc3ncccc3[C@H]4N)c3ccnn23)cnn1 [Compound 124, (5S)-1'-[6-methyl-7-(6-methylpyridazin-4-yl)pyrazolo[1,5-a]pyrazin-4-yl]spiro[5,7-dihydrocyclopenta[b]pyridine-6,4'-piperidine]-5-amine hydrochloride]",391 nM
15,"Cc1nc(N2CCC3(CC2)Cc2ccncc2[C@H]3N)c2ccnn2c1-c1ccccc1 [Compound 138, (7S)-1'-(6-methyl-7-phenyl-pyrazolo[1,5-a]pyrazin-4-yl)spiro[5,7-dihydrocyclopenta[c]pyridine-6,4'-piperidine]-7-amine]",4 nM
16,"Cc1nc(N2CCC3(CC2)Cc2ncccc2[C@H]3N)c2ccnn2c1-c1ccc2nccnc2c1 [Compound 27, (5S)-1'-(6-methyl-7-quinoxalin-6-yl-pyrazolo[1,5-a]pyrazin-4-yl)spiro[5,7-dihydrocyclopenta[b]pyridine-6,4'-piperidine]-5-amine hydrochloride]",16 nM
17,"Cc1nc(N2CCC3(CC2)Cc2ncccc2[C@H]3N)c2ccnn2c1-c1cccc2c1OCC2 [Compound 178, (5S)-1'-[7-(2,3-dihydrobenzofuran-7-yl)-6-methyl-pyrazolo[1,5-a]pyrazin-4-yl]spiro[5,7-dihydrocyclopenta[b]pyridine-6,4'-piperidine]-5-amine]",14 nM
18,"Cc1nc(N2CCC3(CC2)Cc2ncccc2[C@H]3N)c2ccnn2c1C1CC1 [Compound 210, (5S)-1'-(7-cyclopropyl-6-methyl-pyrazolo[1,5-a]pyrazin-4-yl)spiro[5,7-dihydrocyctopenta[b]pyridine-6,4'-piperidine]-5-amine]",> 1000 nM
19,"Cc1nccc(-c2c(C)nc(N3CCC4(CC3)Cc3ccccc3[C@H]4N)c3ccnn23)c1Cl [Compound 25, (S)-1'-(7-(3-chloro-2-methylpyridin-4-yl)-6-methylpyrazolo[1,5-a]pyrazin-4-yl)-1,3-dihydrospiro[indene-2,4'-piperidin]-1-amine hydrochloride]",6 nM
20,"Cc1nc(N2CCC3(CC2)Cc2ncccc2[C@H]3N)c2ccnn2c1-c1ccc(C#N)cc1F [Compound 206, 3-fluoro-4-[6-methyl-4-[(5S)-5-aminospiro[5,7-dihydrocyclopenta[b]pyridine-6,4'-piperidine]-1'-yl]pyrazolo[1,5-a]pyrazin-7-yl]benzonitrile]",12 nM
21,"Cc1ccc(-c2c(C)nc(N3CCC4(CC3)Cc3ncccc3[C@H]4N)c3ccnn23)c(F)c1 [Compound 186, (5S)-1'-[7-(2-fluoro-4-methyl-phenyl)-6-methyl-pyrazolo[1,5-a]pyrazin-4-yl]spiro[5,7-dihydrocyclopenta[b]pyridine-6,4'-piperidine]-5-amine]",2 nM
22,"COc1ccc2c(c1)[C@@H](N)C1(CCN(c3nc(C)c(-c4cnn(C)c4C)n4nccc34)CC1)C2 [Compound 120, (1S)-1'-[7-(1,5-dimethylpyrazol-4-yl)-6-methyl-pyrazolo[1,5-a]pyrazin-4-yl]-6-methoxy-spiro[indane-2,4'-piperidine]-1-amine hydrochloride]",11 nM
